Data set [1] addresses T1, CFTR (Homo sapiens, UniProt P13569). In words: Membrane Potential Dye, Enteroid Assay B. The data set is classed as cell-based. The procedure, abridged:
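Activity given as % of a triple-combination reference (1 μM and 3 μM correctors, 300 nM acute potentiator). Enteroids were preincubated 18-24 h with compound; chloride efflux then measured 15 min by methyl oxonol fluorescence after forskolin/IBMX/Compound III stimulation in chloride-free buffer containing CaCCinh-A01 and Chicago Sky Blue.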

The conditions of data set [2]: amide bond, 13-membered ring.
The target of data set [3] is T1, CFTR. Nature of the data set: Membrane Potential Dye, Enteroid Assay A. The data set is classed as cell-based. Particulars: for EC50: read-out: Ent. A EC50. The procedure, abridged:
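Primary human intestinal enteroid cells exposed to compound for 18–24 hours at 37 °C, then loaded 25 min with methyl oxonol membrane potential dye plus CaCC inhibitors. Chloride transport triggered in chloride-free buffer with 10 μM forskolin, 100 μM IBMX and 300 nM Compound III, fluorescence read 15 min; % Activity relative to a triple-combination corrector/potentiator control.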

Data set [4] concerns the target T2, CFTR (Homo sapiens, UniProt P13569, DEL508-508).
T2 construct: human bronchial epithelial (HBE) cells derived from CF subjects heterozygous for F508del; endogenous in cells; host or cells: primary human bronchial epithelial cells from CF subjects (F508del/MF-HBE)
Nature of the data set: HBE2 assay: Ussing chamber assay of CFTR-mediated short-circuit currents (F508del/MF-HBE, with 44 nM potentiator). It is filed as cell-based. The settings on record: F508del/MF-HBE cells; single fixed concentration 3 μM with 44 nM (6R,12R)-17-amino-12-methyl-6,15-bis(trifluoromethyl)-...-pentaen-6-ol, 18-24 hours, 20% human serum. As for the experimental part: 1. Ussing Chamber Assay of CFTR-mediated Short-circuit Currents
Ussing chamber experiments were performed using human bronchial epithelial (HBE) cells derived from CF subjects heterozygous for F508del and a minimal function CFTR mutation (F508del/MF-HBE) and cultured as previously described (Neuberger T, Burton B, Clark H, Van Goor F Methods Mol Biol 2011:741:39-54). After four days the apical media was removed, and the cells were grown at an air liquid interface for >14 days prior to use.
To isolate the CFTR-mediated short-circuit (ISC) current, F508del/MF-HBE grown on Costar® Snapwell™ cell culture inserts were mounted in an Ussing chamber and the transepithelial ISC was measured under voltage-clamp recording conditions (Vhold=0 mV) at 37° C. The basolateral solution contained (in mM) 145 NaCl, 0.83 K2HPO4, 3.3 KH2PO4, 1.2l MgCl2, 1.2 CaCl2), 10 Glucose, 10 HEPES (pH adjusted to 7.4 with NaOH) and the apical solution contained (in mM) 145 NaGluconate, 1.2 MgCl2, 1.2 CaCl2), 10 glucose, 10 HEPES (pH adjusted to 7.4 with NaOH) and 30 μM amiloride to block the epithelial sodium channel. […] The CFTR-mediated ISC (μA/cm^2) for each condition was determined from the peak forskolin response to the steady-state current following inhibition. […]
The activity of the CFTR corrector compounds on the CFTR-mediated ISC was determined in Ussing chamber studies as described above. […]

[5] abbreviates: Table 10, read-out: Ent. B EC50.

Read-outs that look alike come from different tables or passages of the source. Some results are limits rather than exact numbers.

T1 sequence (P13569 with tags, fused parts or gaps DEL508-508): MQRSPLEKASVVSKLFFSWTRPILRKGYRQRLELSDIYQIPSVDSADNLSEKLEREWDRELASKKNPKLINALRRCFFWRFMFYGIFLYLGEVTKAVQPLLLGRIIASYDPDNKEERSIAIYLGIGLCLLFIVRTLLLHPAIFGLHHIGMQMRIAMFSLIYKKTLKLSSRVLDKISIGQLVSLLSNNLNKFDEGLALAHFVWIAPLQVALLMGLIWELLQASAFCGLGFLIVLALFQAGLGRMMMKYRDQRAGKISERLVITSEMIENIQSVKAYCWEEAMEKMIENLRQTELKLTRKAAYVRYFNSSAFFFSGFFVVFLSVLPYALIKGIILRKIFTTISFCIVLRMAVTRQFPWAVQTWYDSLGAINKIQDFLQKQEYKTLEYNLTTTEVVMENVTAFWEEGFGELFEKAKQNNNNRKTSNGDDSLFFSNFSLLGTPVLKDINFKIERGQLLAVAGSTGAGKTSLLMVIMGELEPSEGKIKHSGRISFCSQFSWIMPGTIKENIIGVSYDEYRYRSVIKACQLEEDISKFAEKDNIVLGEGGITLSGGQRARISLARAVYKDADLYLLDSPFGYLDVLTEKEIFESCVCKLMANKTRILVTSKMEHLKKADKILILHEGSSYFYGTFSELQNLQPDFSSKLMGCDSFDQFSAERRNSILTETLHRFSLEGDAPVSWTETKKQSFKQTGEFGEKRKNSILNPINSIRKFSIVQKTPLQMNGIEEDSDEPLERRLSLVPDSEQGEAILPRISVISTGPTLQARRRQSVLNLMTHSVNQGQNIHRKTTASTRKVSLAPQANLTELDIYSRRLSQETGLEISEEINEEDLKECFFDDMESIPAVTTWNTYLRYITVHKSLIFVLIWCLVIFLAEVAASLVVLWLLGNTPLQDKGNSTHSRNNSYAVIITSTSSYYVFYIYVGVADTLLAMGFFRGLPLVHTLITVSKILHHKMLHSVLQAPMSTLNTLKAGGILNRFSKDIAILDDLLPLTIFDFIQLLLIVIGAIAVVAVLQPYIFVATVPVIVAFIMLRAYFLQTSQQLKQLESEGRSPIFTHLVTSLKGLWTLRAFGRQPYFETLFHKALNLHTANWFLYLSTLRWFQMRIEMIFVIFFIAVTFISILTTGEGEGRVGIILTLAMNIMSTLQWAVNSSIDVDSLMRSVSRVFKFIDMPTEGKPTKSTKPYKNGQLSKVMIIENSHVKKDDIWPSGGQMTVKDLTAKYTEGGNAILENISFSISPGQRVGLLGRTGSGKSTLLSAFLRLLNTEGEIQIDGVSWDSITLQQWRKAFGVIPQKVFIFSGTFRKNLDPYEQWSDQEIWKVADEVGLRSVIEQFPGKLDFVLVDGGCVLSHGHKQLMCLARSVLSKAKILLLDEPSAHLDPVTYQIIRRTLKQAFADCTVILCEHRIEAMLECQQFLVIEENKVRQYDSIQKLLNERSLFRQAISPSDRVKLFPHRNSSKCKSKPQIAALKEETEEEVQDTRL
T2 sequence (P13569 with tags, fused parts or gaps DEL508-508): as above

Take `Cc1cccc(C)c1-c1cc2nc(n1)NS(=O)(=O)c1cccc(c1)C(=O)N(C1CC3(CCN(C(=O)OC(C)(C)C)CC3)C1)[C@H](CC1(C(F)(F)F)CC1)CO2` [Compound 127, tert-butyl 2-[(11R)-6-(2,6-dimethylphenyl)-2,2,13-trioxo-11-[[1-(trifluoromethyl)cyclopropyl]methyl]-9-oxa-2λ^6-thia-3,5,12,19-tetrazatricyclo[12.3.1.14,8]nonadeca-1(18),4(19),5,7,14,16-hexaen-12-yl]-7-azaspiro[3.5]nonane-7-carboxylate]: the “Ent. B Max Activity (%)” value in data set [1] is “+++ (+++ is >60%)”. Further, the concentration giving a half-maximal response (EC50) in data set [1] (read-out: Ent. B EC50) is below 1 µM. In data set [2] (from Cc1cccc(C)c1-c1cc(OC[C@@H](CC2(C(F)(F)F)CC2)NC2CC3(CCN(C(=O)OC(C)(C)C)CC3)C2)nc(NS(=O)(=O)c2cccc(C(=O)O)c2)n1, HATU/DIEA, DMF, 65.3 mM, 16.0 h), this molecule gave a ring closure, isolated yield of 59%.

Turning to `Cc1cccc(C)c1-c1cc2nc(n1)NS(=O)(=O)c1cccc(n1)C(=O)N(C1CC3(CC3)C1)[C@H](CC1(C(F)(F)F)CC1)CO2` [Compound 163, (11R)-6-(2,6-Dimethylphenyl)-2,2-dioxo-12-spiro[2.3]hexan-5-yl-11-[[1-(trifluoromethyl)cyclopropyl]methyl]-9-oxa-2λ^6-thia-3,5,12,18,19-pentazatricyclo[12.3.1.14,8]nonadeca-1(18),4(19),5,7,14,16-hexaen-13-one], in data set [3], the “Ent. A Max Activity (%)” value is on record as “+++ (+++ is >60%)” and the EC50 is below 1 µM. Further, the ring closure, isolated yield in data set [2] (from Cc1cccc(C)c1-c1cc(OC[C@@H](CC2(C(F)(F)F)CC2)NC2CC3(CC3)C2)nc(NS(=O)(=O)c2cccc(C(=O)O)n2)n1, HATU/DIEA, NMP, 99.8 mM, 25.0 °C, 16.0 h) came to 58%.

As to `Cc1cccc(C)c1-c1cc2nc(n1)NS(=O)(=O)c1cccc(c1)C(=O)N(C1CC3(CCN(C(=O)OC(C)(C)C)CC3)C1)[C@H](CC(C)(C)C(F)(F)F)CO2` [Compound 187, tert-Butyl 2-[(11R)-6-(2,6-dimethylphenyl)-2,2,13-trioxo-11-(3,3,3-trifluoro-2,2-dimethylpropyl)-9-oxa-2λ^6-thia-3,5,12,19-tetraazatricyclo[12.3.1.14,8]nonadeca-1(17),4(19),5,7,14(18),15-hexaen-12-yl]-7-azaspiro[3.5]nonane-7-carboxylate], in data set [1] (Table 9), the “Ent. B Max Activity (%)” value is “+++ (+++ is >60%)”. Besides, the concentration giving a half-maximal response (EC50) in data set [1] (Table 9, read-out: Ent. B EC50) is below 1 µM. The ring closure, isolated yield in data set [2] (from Cc1cccc(C)c1-c1cc(OC[C@@H](CC(C)(C)C(F)(F)F)NC2CC3(CCN(C(=O)OC(C)(C)C)CC3)C2)nc(NS(=O)(=O)c2cccc(C(=O)O)c2)n1, HATU/DIEA, DMF, 37.7 mM, 17.0 h) worked out at 15%.

In the case of `Cc1cccc(C)c1-c1cc2nc(n1)NS(=O)(=O)c1cccc(c1)C(=O)N(C1CCN(C)C1=O)[C@H](CC(C)(C)C)CO2` (stereo partly drawn) [Compound 508, (11R)-6-(2,6-Dimethylphenyl)-11-(2,2-dimethylpropyl)-12-(1-methyl-2-oxo-pyrrolidin-3-yl)-2,2-dioxo-9-oxa-2λ^6-thia-3,5,12,19-tetrazatricyclo[12.3.1.14,8]nonadeca-1(18),4(19),5,7,14,16-hexaen-13-one], the “HBE2 Activity at 3 μM” value in data set [4] is reported as “+++ (+++ is >60%)”.

For `Cc1cccc(C)c1-c1cc2nc(n1)NS(=O)(=O)c1cccc(c1)C(=O)N(C1CC3(CCN(C(=O)OC(C)(C)C)CC3)C1)[C@H](CC(C)C)CO2` [Compound 13, tert-Butyl 2-[(11R)-6-(2,6-dimethylphenyl)-11-isobutyl-2,2,13-trioxo-9-oxa-2λ^6-thia-3,5,12,19-tetrazatricyclo[12.3.1.14,8]nonadeca-1(18),4(19),5,7,14,16-hexaen-12-yl]-7-azaspiro[3.5]nonane-7-carboxylate], in data set [3], the “Ent. A Max Activity (%)” value is given as “+++ (+++ is >60%)” and the concentration giving a half-maximal response (EC50) is below 1 µM. Also, in data set [1], the “Ent. B Max Activity (%)” value is on record as “+++ (+++ is >60%)”. Further, the concentration for a half-maximal effect (EC50) in data set [1] (read-out: Ent. B EC50) was below 1 µM. Besides, the ring closure, isolated yield in data set [2] (from Cc1cccc(C)c1-c1cc(OC[C@@H](CC(C)C)NC2CC3(CCN(C(=O)OC(C)(C)C)CC3)C2)nc(NS(=O)(=O)c2cccc(C(=O)O)c2)n1, HATU/DIEA, DMF, 68.6 mM, 25.0 °C, 13.0 h) was determined as 78%.

Consider `Cc1cccc(C)c1-c1cc2nc(n1)NS(=O)(=O)c1cccc(c1)C(=O)N(C1CCCN(C)C1=O)[C@H](CC(C)(C)C)CO2` (stereo partly drawn) [Compound 507, (11R)-6-(2,6-Dimethylphenyl)-11-(2,2-dimethylpropyl)-12-(1-methyl-2-oxo-3-piperidyl)-2,2-dioxo-9-oxa-2λ^6-thia-3,5,12,19-tetrazatricyclo[12.3.1.14,8]nonadeca-1(18),4(19),5,7,14,16-hexaen-13-one], for which, in data set [4], the “HBE2 Activity at 3 μM” value was “+++ (+++ is >60%)”.

`Cc1cccc(C)c1-c1cc2nc(n1)NS(=O)(=O)c1cccc(c1)C(=O)N(C1CC3(CC(NC(=O)OC(C)(C)C)C3)C1)[C@H](CC(C)(C)C)CO2` (stereo partly shown) [Compound 199]: the “Ent. B Max Activity (%)” value in data set [1] (Table 10) is listed as “+++ (+++ is >60%)”. In addition, in data set [1] (setting [5]), the EC50 is below 1 µM. Further, the ring closure, isolated yield amounted to 63% in data set [2] (from Cc1cccc(C)c1-c1cc(OC[C@@H](CC(C)(C)C)NC2CC3(CC(NC(=O)OC(C)(C)C)C3)C2)nc(NS(=O)(=O)c2cccc(C(=O)O)c2)n1, HATU/DIEA, DMF, 107.7 mM, 24.0 h) and 80% in data set [2] (from Cc1cccc(C)c1-c1cc(OC[C@@H](CC(C)(C)C)NC2CC3(CC(NC(=O)OC(C)(C)C)C3)C2)nc(NS(=O)(=O)c2cccc(C(=O)O)c2)n1, HATU/DIEA, DMF, 120.7 mM, 36.0 h).

`Cc1cccc(C)c1-c1cc2nc(n1)NS(=O)(=O)c1cccc(c1)C(=O)N(C1CC3(CC3)C1)[C@H](CC(C)(C)O)CO2` [Compound 51, (11R)-6-(2,6-Dimethylphenyl)-11-(2-hydroxy-2-methyl-propyl)-2,2-dioxo-12-spiro[2.3]hexan-5-yl-9-oxa-2λ^6-thia-3,5,12,19-tetrazatricyclo[12.3.1.14,8]nonadeca-1(18),4(19),5,7,14,16-hexaen-13-one]: the “Ent. B Max Activity (%)” value in data set [1] (Table 10) is recorded as “+++ (+++ is >60%)”. For the same molecule, in data set [1] (setting [5]), the half-maximal effective concentration (EC50) lay within 1 to 3 µM. In data set [2] (from Cc1cccc(C)c1-c1cc(OC[C@@H](CC(C)(C)O)NC2CC3(CC3)C2)nc(NS(=O)(=O)c2cccc(C(=O)O)c2)n1, T3P/Et3N, DMF/EtOAc, 26.4 mM, 4.0 h), this molecule showed a ring closure, isolated yield of 17%.

As to `Cc1cccc(C)c1-c1cc2nc(n1)NS(=O)(=O)c1cccc(c1)C(=O)N(C1CC3(CC3)C1)[C@H](CC1(C(F)(F)F)CC1)CO2` [Compound 198, (11R)-6-(2,6-Dimethylphenyl)-2,2-dioxo-12-spiro[2.3]hexan-5-yl-11-[[1-(trifluoromethyl)cyclopropyl]methyl]-9-oxa-2λ^6-thia-3,5,12,19-tetrazatricyclo[12.3.1.14,8]nonadeca-1(18),4(19),5,7,14,16-hexaen-13-one], in data set [3], the “Ent. A Max Activity (%)” value is on record as “+++ (+++ is >60%)” and the EC50 was below 1 µM. Also, the “Ent. B Max Activity (%)” value in data set [1] is on record as “+++ (+++ is >60%)”. Moreover, the EC50 in data set [1] (read-out: Ent. B EC50) was below 1 µM. The same molecule returned a ring closure, isolated yield in data set [2] (from Cc1cccc(C)c1-c1cc(OC[C@@H](CC2(C(F)(F)F)CC2)NC2CC3(CC3)C2)nc(NS(=O)(=O)c2cccc(C(=O)O)c2)n1, HATU/DIEA, DMF, 49.1 mM, 21.0 h) of 60%.

The values are drawn from patent US20230382925A1, “MODULATORS OF CYSTIC FIBROSIS TRANSMEMBRANE CONDUCTANCE REGULATOR” (VERTEX PHARMACEUTICALS INCORPORATED, priority 2020, published 2023).
